Test results: patent US20050003378A1, “Inhibitor of demethylase, antitumorigenic agent, and an in vitro assay for demethylase inhibitors” (priority 2002, published 2005)

What was measured:
[1] = tested on: CMV-GFP expression in HEK 293 cells; experiment: GFP expression from transfected CMV-GFP in HEK 293 cells (Western blot); conditions: for TSA induced GFP expression of methylated CMV-GFP: 0.3 μM TSA, increasing amounts of compound (mM)
[2] = tested on: endogenous demethylase activity; experiment: Active demethylation of in vitro methylated CMV-GFP transiently transfected into HEK 293 cells (HpaII/MspI digestion, Southern blot); conditions: for percentage of methylated GFP remaining (inhibition of TSA induced active demethylation of methylated CMV-GFP): 0.3 μM TSA, 2, 4, 8 mM compound, harvested 72 hours post transfection
[3] = tested on: HEK 293 human embryonal kidney cells; experiment: Soft agar assay (anchorage independent growth), HEK 293 cells; assay type: cell-based; conditions: single 24 hour treatment at 4 mM, colonies counted 7 days after plating
Experimental: (§1) For analysis of growth in soft agar, 3 ×10^3 cells were seeded in triplicate onto a six well dish in 4 ml of complete medium containing 0.33% agar solution at 37° C. (34). Cells were fed with 2 ml of medium twice weekly. The assay was performed in triplicate, and colonies were counted 21 days after plating for A549 cells, and 7 days after plating for HEK 293 cells.
(§2) AdoMetinhibits the tumorigenic properties of two different transformed cells lines, A549 human lung carcinoma cells and HEK 293 human embryonal kidney cells—It is well documented that a correlation exists between reduced intracellular AdoMet (either as a consequence of decreased folate intake or pharmacological intervention) and an increase in cell proliferation and tumorigenesis (2, 19). […] We therefore decided to test whether treatment with AdoMet could inhibit the transformation potential of HEK 293 cells, which were shown here to be responsive to AdoMet inhibition of demethylase. We also tested AdoMet effects on the transformed state of A549, a human lung non-small cell carcinoma cell line, to exclude the possibility that AdoMet effects are an idiosyncrasy of HEK 293 cells. Cells were treated for 24 hours with either AdoMet or AdoHcy at a concentration of 4 mM. An equal number of living cells were seeded onto soft agar to test their anchorage independent growth, an indicator of tumorigenesis in vitro. […]

[4] = tested on: A549 human lung carcinoma cells; experiment: Soft agar assay (anchorage independent growth), A549 cells; assay type: cell-based; conditions: single 24 hour treatment at 4 mM, colonies counted 21 days after plating
Experimental: as §1, §2

human MBD2/dMTase = target: T1, human MBD2/dMTase (Homo sapiens, UniProt Q9UBB5); experiment: In vitro demethylation assay with recombinant MBD2/dMTase; assay type: biochemical; conditions: for conversion of methyl-dCMP to dCMP by MBD2/dMTase: 24 hours at 37° C.
T1 construct: made in house; host or cells: SF9 insect cells (baculovirus, transfer vector pBlueBacHis2 C)
Experimental: AdoMet preparations for in vitro studies—AdoMet was prepared as a 50 mM solution in distilled water either by freeze drying a 32 mM AdoMet solution, which contained 10% ethanol and 5 mM sulfuric acid (New England Biolabs) immediately before use or by dissolving lyophilized powder (SIGMA) in distilled water. To control for possible nonspecific effects of remnants of the AdoMet storage buffer we freeze dried a solution of 5 mM sulfuric acid and 10% ethanol under the same conditions as done with the AdoMet solution and added distilled water after lyophilizing. AdoHcy was purchased from SIGMA and dissolved in distilled water at a 50 mM concentration.
Purification of recombinant MBD2/dMTase from SF9 cells—A fragment containing human MBD2/dMTase was excised from pCR2.1-dMTase (10) with BamHI and XhoI and transferred to the Baculovirus expression transfer vector pBlueBacHis2 C (Invitrogen). PBlueBacHis2 C-MBD2/dMTase and Bac-N-Blue viral DNA were co-transfected into the SF9 insect cell line, and recombinant viruses were isolated, identified and amplified according to the manufacturer's protocol (Invitrogen) with no modifications. High titer P3 viral stocks were used for infections. Insect SF9 cells were cultured in spinner flasks to a density of 2.5×10^6 cells/ml in Grace's Insect Cell Culture Medium Supplemented (1×) from Life Technologies. For infection, 5×10^6 cells were plated in 10 cm tissue culture plates (Sarstedt) and allowed to settle and attach for 30 minutes. The culture medium was removed and was replaced with 10 ml of the same medium containing MBD2/dMTase virus at a multiplicity of infection of 10. The cells were cultured with the virus for 5 days at 27° C. and were then harvested by scraping in cold phosphate buffered saline. Cell pellets from 10 plates were frozen and kept at −70° C. until they were used for enzyme purification. Frozen pellets were thawed in 5 ml of lysis buffer (10 mM Tris-HCl pH 8.0, 5 mM MgCl2, 500 mM NaCl, 0.05% Tween 20, 10% glycerol and 10 mM imidazole) containing 1 μg/ml of the following protease inhibitors: aprotinin, leupeptin and pefablock. Protease inhibitors were added to all the solutions used in the purification. The homogenates were subjected to two cycles of freezing and thawing (5 minutes per step). DNA in the homogenate was sheered by passing through a 18.5 gauge needle 10 times. The extracts were then subjected to 15 cycles of sonication (10 seconds burst, 10 seconds gap per cycle at 20% of maximal output). The extracts were centrifuged at 10,000×g for 35 minutes. The supernatant was transferred into a fresh tube and was recentrifuged for additional 25 minutes at 15,000×g. The extract was filtered through a 5 micron filter to remove any particulate matter and the buffer was exchanged on a PD-10 buffer exchange column (Amersham Pharmacia) with buffer L (10 mM Tris-HCl pH 8.0, 10 mM MgCl2) containing 50 mM NaCl. Recombinant MBD2/dMTase was partially purified by Q-sepharose (Pharmacia) ion exchange chromatography. Q-sepharose beads (1 ml of swollen beads) were washed extensively and preequilibrated with buffer L containing 50 mM NaCl and divided into 3 equal aliquots. The cell extracts were sequentially bound three times to the 3 aliquots of Q-sepharose beads in batch in 15 ml tubes by shaking gently on a Nutator for 45 minutes at 4° C. […]

T1 sequence (Q9UBB5 150-411 limits assumed): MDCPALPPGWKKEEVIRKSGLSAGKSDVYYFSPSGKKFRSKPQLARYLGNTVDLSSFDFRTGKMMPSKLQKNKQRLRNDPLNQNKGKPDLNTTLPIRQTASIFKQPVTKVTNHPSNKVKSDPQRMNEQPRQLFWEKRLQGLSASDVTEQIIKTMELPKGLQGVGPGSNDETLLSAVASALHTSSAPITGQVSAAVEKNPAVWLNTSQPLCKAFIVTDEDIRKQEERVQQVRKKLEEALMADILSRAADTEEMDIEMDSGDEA

SMILES	GFP expression of methylated CMV-GFP ([1]; methylated CMV-GFP, TSA alone)	demethylation of methylated CMV-GFP by endogenous demethylase activity ([2]; methylated CMV-GFP, 0.3 μM TSA alone)	TSA induced GFP expression of methylated CMV-GFP ([1]; methylated CMV-GFP)	colony formation in soft agar (anchorage independent growth) [3]	colony formation in soft agar (anchorage independent growth) [4]	effect of AdoHcy on inhibition of the demethylase reaction by AdoMet (competition experiment) (human MBD2/dMTase; increasing AdoHcy in presence of 10 mM AdoMet, up to tenfold concentration excess of AdoHcy)	inhibition of demethylation activity of MBD2/dMTase (human MBD2/dMTase; increasing concentrations of AdoHcy)	percentage of methylated GFP remaining (inhibition of TSA induced active demethylation of methylated CMV-GFP) ([2]; methylated CMV-GFP)	induction of non-methylated GFP by TSA ([1]; unmethylated CMV-GFP, 0.3 μM TSA plus AdoMet)	conversion of methyl-dCMP to dCMP by MBD2/dMTase (human MBD2/dMTase; 2 mM AdoMet)	conversion of methyl-dCMP to dCMP by MBD2/dMTase (human MBD2/dMTase; AdoMet concentrations higher than 4 mM)	inhibition of demethylation attained (human MBD2/dMTase; maximum inhibition on dose curve, average of 3 independent experiments) [%]	de novo methylation of unmethylated CMV-GFP ([2]; unmethylated CMV-GFP, 8 mM AdoMet)
CC(/C=C/C(=O)NO)=C\[C@@H](C)C(=O)c1ccc(N(C)C)cc1 [TSA, Trichostatin A]	dramatic induction	nearly complete demethylation											
Nc1ncnc2c1ncn2[C@@H]1O[C@H](CSCC[C@H](N)C(=O)O)[C@@H](O)[C@H]1O [AdoHcy, S-adenosylhomocysteine]			no significant effect	does not inhibit	does not inhibit	does not diminish inhibition	no inhibition	insignificant effect					
C[S+](CC[C@H](N)C(=O)[O-])C[C@H]1O[C@@H](n2cnc3c(N)ncnc32)[C@H](O)[C@@H]1O (some centres unmarked) [AdoMet, S-Adenosylmethionine]			decreased in a dose dependent fashion	only a minimal number of colonies	no colonies are formed			increases in a dose dependent manner	no significant effect	greatly reduced	abolished completely	100	does not get de novo methylated
